Among the test systems are NCI-H460 lung; DU-145 prostate; UO-31 renal; OVCAR-3 ovarian; OVCAR-8 ovarian; MDA-MB-435; NCI-H522 lung; NCI/ADR-RES ovarian; SK-MEL-2 melanoma; SR leukemia.
Assay in all cases: growth of human tumour cells (NCI), 48 h

This passage reports GI50 and TGI results from PubChem BioAssay (NCI).

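Results reflect a 48-hour exposure of cells in 96-well plates to compound at five concentrations. GI50 is the concentration that inhibits growth by half. TGI: total growth inhibition.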

As to `O=C1CC[C@H](N2C(=O)c3cccc4c(Cc5ccc(CN6CCOCC6)cc5)ccc2c34)C(=O)N1`, the GI50 was 35.2 µM in the assay with NCI-H460 lung; greater than 100 µM in the assay on DU-145 prostate; 48.7 µM with UO-31 renal; 65.6 µM in the assay on OVCAR-3 ovarian; 56.6 µM in the assay with OVCAR-8 ovarian; 36.9 µM with MDA-MB-435. In addition, the GI50 with NCI-H522 lung is 12.3 µM; in the assay on NCI/ADR-RES ovarian, 42 µM; in the assay on SK-MEL-2 melanoma, greater than 100 µM; with SR leukemia, 4.03 µM. The TGI with NCI-H460 lung, in the assay with DU-145 prostate, in the assay with UO-31 renal, in the assay on OVCAR-3 ovarian, with OVCAR-8 ovarian and in the assay with MDA-MB-435 was greater than 100 µM in each case. Besides, the TGI in the assay on NCI-H522 lung, in the assay on NCI/ADR-RES ovarian, with SK-MEL-2 melanoma and in the assay on SR leukemia was greater than 100 µM each time.

As to `CC12OOC(c3ccccc31)c1c2ccc2ccccc12` (stereo unspecified), the TGI was 5.48 µM with NCI-H460 lung; 32.4 µM in the assay with DU-145 prostate; 23.2 µM with UO-31 renal; 5.81 µM in the assay on OVCAR-3 ovarian; 20.9 µM in the assay on OVCAR-8 ovarian; 18.2 µM in the assay with MDA-MB-435. In addition, the TGI was found to be 1.99 µM in the assay on NCI-H522 lung, 24.1 µM with NCI/ADR-RES ovarian, 24.9 µM in the assay on SK-MEL-2 melanoma and 3.24 µM in the assay with SR leukemia.

Regarding `NS(=O)(=O)OCC1OC(n2cnc3cncnc32)C(O)C1O` (stereo unspecified), the GI50 in the assay on NCI-H460 lung was 0.024 µM; in the assay with DU-145 prostate, 0.0178 µM; in the assay with UO-31 renal it was 0.0256 µM; with OVCAR-3 ovarian, 0.035 µM; in the assay with OVCAR-8 ovarian it was less than 0.01 µM; in the assay on MDA-MB-435 it was 0.0284 µM. In addition, the GI50 in the assay with NCI-H522 lung is less than 0.01 µM; with NCI/ADR-RES ovarian it was 0.0103 µM; with SK-MEL-2 melanoma it was 0.0351 µM; with SR leukemia, 0.0153 µM. Besides, the TGI in the assay on NCI-H460 lung came to 0.0762 µM; in the assay with DU-145 prostate it was 0.132 µM; with UO-31 renal it was 0.106 µM; with OVCAR-3 ovarian, 0.297 µM; in the assay on OVCAR-8 ovarian, 0.0466 µM; in the assay with MDA-MB-435, 0.0845 µM. Moreover, the TGI amounted to 0.0232 µM in the assay on NCI-H522 lung, 0.0503 µM in the assay with NCI/ADR-RES ovarian, 0.133 µM with SK-MEL-2 melanoma and 21.6 µM with SR leukemia.

In the case of `CCN(CC)CCNc1ccc(C)c2sc3cc(Cl)ccc3c(=O)c12`, the GI50 in the assay with NCI-H460 lung is 1.87 µM; with DU-145 prostate it was 1.78 µM; with UO-31 renal, 1.32 µM; in the assay with OVCAR-3 ovarian, 1.73 µM; in the assay with OVCAR-8 ovarian, 1.9 µM; in the assay on MDA-MB-435, 1.7 µM. The GI50 with NCI-H522 lung was 2.04 µM; with NCI/ADR-RES ovarian, 1.62 µM; in the assay with SK-MEL-2 melanoma it was 1.88 µM; in the assay with SR leukemia, 1.6 µM. The TGI in the assay on NCI-H460 lung worked out at 3.54 µM; in the assay on DU-145 prostate, 3.17 µM; in the assay on UO-31 renal it was 2.69 µM; in the assay on OVCAR-3 ovarian it was 3.23 µM; in the assay on OVCAR-8 ovarian, 3.49 µM; in the assay on MDA-MB-435, 3.14 µM. In addition, the TGI in the assay on NCI-H522 lung worked out at 3.77 µM; in the assay with NCI/ADR-RES ovarian, 3.23 µM; in the assay with SK-MEL-2 melanoma, 3.72 µM; with SR leukemia, 3.57 µM.

On to `OC(c1cc(-c2cccc(Cl)c2)nc2ccccc12)C1CCCCN1` (stereo unspecified), for which the GI50 was 1.76 µM with DU-145 prostate; 1.36 µM in the assay with UO-31 renal; 1.81 µM in the assay on OVCAR-3 ovarian; 1.79 µM with OVCAR-8 ovarian; 1.63 µM in the assay on MDA-MB-435; 1.97 µM with NCI-H522 lung. Further, the GI50 in the assay on NCI/ADR-RES ovarian was 1.99 µM; in the assay with SK-MEL-2 melanoma it was 2.18 µM; in the assay on SR leukemia it was 1.27 µM. Besides, the TGI stood at 3.15 µM in the assay on DU-145 prostate; 2.74 µM in the assay with UO-31 renal; 3.21 µM with OVCAR-3 ovarian; 3.42 µM in the assay with OVCAR-8 ovarian; 3.15 µM with MDA-MB-435; 3.66 µM in the assay on NCI-H522 lung. The TGI was found to be 4.02 µM with NCI/ADR-RES ovarian, 4.02 µM in the assay on SK-MEL-2 melanoma and 3.8 µM in the assay with SR leukemia.

`Cc1cc(=O)[nH]c(N/N=C/c2cc(Br)ccc2O)n1`: the GI50 in the assay on NCI-H460 lung is 0.488 µM; with DU-145 prostate it was 1.78 µM; in the assay with UO-31 renal, 0.435 µM; with OVCAR-3 ovarian, 0.34 µM; in the assay with OVCAR-8 ovarian it was 0.369 µM; in the assay with MDA-MB-435 it was 1.77 µM. Besides, the GI50 was 3.37 µM in the assay on NCI-H522 lung, 0.35 µM in the assay on NCI/ADR-RES ovarian, 49.3 µM in the assay with SK-MEL-2 melanoma and 0.896 µM in the assay on SR leukemia. Further, the TGI in the assay on NCI-H460 lung was 20.5 µM; with DU-145 prostate, greater than 100 µM; in the assay on UO-31 renal, 3.21 µM; with OVCAR-3 ovarian it was 38.6 µM; in the assay with OVCAR-8 ovarian, 35.6 µM; with MDA-MB-435 it was 81.5 µM. Besides, the TGI in the assay with NCI-H522 lung is 22 µM; in the assay with NCI/ADR-RES ovarian, greater than 100 µM; in the assay on SK-MEL-2 melanoma, greater than 100 µM; with SR leukemia, greater than 100 µM.

On to `CC[C@@H]1[C@@H](C)O[C@@](O)([C@@H](C)[C@H](O)[C@H](C)[C@H]2OC(=O)/C=C/C=C/[C@H](C)[C@@H]([C@@H](C)[C@@H](O)[C@H](C)[C@@]3(O)C[C@@H](O[C@H]4C[C@@H](O)[C@H](O)C(C)O4)[C@H](CC)[C@@H](C)O3)OC(=O)/C=C/C=C/[C@@H]2C)C[C@H]1O[C@@H]1C[C@@H](O)[C@H](O)C(C)O1` (stereo partly specified), for which the GI50 is 0.0569 µM in the assay with NCI-H460 lung; 0.0732 µM with DU-145 prostate; 0.134 µM in the assay on UO-31 renal; 0.0791 µM in the assay with OVCAR-3 ovarian; 0.138 µM with OVCAR-8 ovarian; 0.0867 µM in the assay with MDA-MB-435. Also, the GI50 with NCI-H522 lung is 0.0885 µM; in the assay on NCI/ADR-RES ovarian it was 1.05 µM; with SK-MEL-2 melanoma it was 0.0808 µM. The TGI in the assay on NCI-H460 lung amounted to 0.115 µM; in the assay with DU-145 prostate, 0.169 µM; in the assay on UO-31 renal, 0.583 µM; in the assay with OVCAR-3 ovarian it was 0.219 µM; with OVCAR-8 ovarian it was 0.557 µM; in the assay with MDA-MB-435, 0.261 µM. The TGI with NCI-H522 lung came out at 0.303 µM; in the assay on NCI/ADR-RES ovarian, 7.04 µM; with SK-MEL-2 melanoma, 0.197 µM.
